Measurements taken from ChEMBL document CHEMBL1201862, “PubChem BioAssay data set” (2004).
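Where inhibition never reached the appropriate level, the endpoint shown equals the highest concentration tested. Otherwise, values were interpolated linearly from a five-concentration, 48-hour dose response in 96-well plates. The concentration for 50% growth inhibition is given as GI50.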 Calls of active or inactive are those of the source. Cut-off read from the data, not from the text of the source: active = GI50 up to about 1.1 µM and inactive = higher.

Columns and labels:
Experiment in all cases: NCI anticancer screen, dose series, 48 h
[1] = test system: 786-0
[2] = test system: A498
[3] = test system: A549
[4] = test system: CCRF-CEM
[5] = test system: HCT-15
[6] = test system: HOP-92
[7] = test system: HT-29
[8] = test system: IGROV-1
[9] = test system: KM12
[10] = test system: NCI-H23
[11] = test system: NCI-H460
[12] = test system: OVCAR-5
[13] = test system: SF-539
[14] = test system: SK-MEL-5
[15] = test system: SK-OV-3
[16] = test system: UACC-257
[17] = test system: UO-31
[18] = test system: MDA-MB-435
[19] = test system: T47D

Structure (SMILES)	GI50 [1]	GI50 [2]	GI50 [3]	GI50 [4]	GI50 [5] [µM]	GI50 [6]	GI50 [7]	GI50 [8]	GI50 [9]	GI50 [10]	GI50 [11]	GI50 [12]	GI50 [13]	GI50 [14]	GI50 [15]	GI50 [16]	GI50 [17]	GI50 [18]	GI50 [19]
CN(C(=O)C12C3C4C1C1C4(C(=O)C45C6C7C4C4C5C6C74C)C3C12C)C(C)(C)C (centres undefined)	67.9 µM (inactive)	55.3 µM (inactive)	52.7 µM (inactive)	32.1 µM (inactive)	28.3	28.6 µM (inactive)	17.5 µM (inactive)	> 100 µM (inactive)	78.7 µM (inactive)	70.5 µM (inactive)	54.6 µM (inactive)	88.1 µM (inactive)	> 100 µM (inactive)	31.6 µM (inactive)	90.4 µM (inactive)	32.5 µM (inactive)	38.5 µM (inactive)		
NC1(c2cc3ccccc3s2)CCCCCC1	15.5 µM (inactive)	20.7 µM (inactive)	18.1 µM (inactive)	16 µM (inactive)	17.1	14 µM (inactive)	14.2 µM (inactive)	14.7 µM (inactive)	16 µM (inactive)	17.3 µM (inactive)	15 µM (inactive)	15 µM (inactive)	18 µM (inactive)	15.1 µM (inactive)	17.1 µM (inactive)	16.3 µM (inactive)	14.4 µM (inactive)	16.1 µM (inactive)	
COC(=O)C1C2C=CC(C2)N1S(=O)(=O)c1ccccc1 (centres undefined)	> 100 µM (inactive)	> 100 µM (inactive)	> 100 µM (inactive)		> 100	33 µM (inactive)	> 100 µM (inactive)		> 100 µM (inactive)	> 100 µM (inactive)	> 100 µM (inactive)	> 100 µM (inactive)	> 100 µM (inactive)	> 100 µM (inactive)	> 100 µM (inactive)		> 100 µM (inactive)	> 100 µM (inactive)	> 100 µM (inactive)
CC(C)(CN1CCCCC1)C(=O)/C=C/c1ccc(Cl)c(Cl)c1	1.38 µM (inactive)	1.67 µM (inactive)	1.98 µM (inactive)	1.09 µM (active)	1.41	1.03 µM (active)	1.61 µM (inactive)	2 µM (inactive)	1.71 µM (inactive)	1.71 µM (inactive)	1.65 µM (inactive)	1.71 µM (inactive)	2.07 µM (inactive)	2.07 µM (inactive)	2.34 µM (inactive)	1.18 µM (inactive)	1.63 µM (inactive)		
Cc1cc2c(c(C#N)c1C)NC(=O)C(CC(=O)O)C2=O (centres undefined)	> 100 µM (inactive)	> 100 µM (inactive)	> 100 µM (inactive)	> 100 µM (inactive)	> 100	> 100 µM (inactive)	> 100 µM (inactive)	> 100 µM (inactive)	> 100 µM (inactive)	> 100 µM (inactive)	> 100 µM (inactive)	> 100 µM (inactive)	> 100 µM (inactive)	> 100 µM (inactive)	> 100 µM (inactive)	> 100 µM (inactive)	> 100 µM (inactive)		
CC(=O)Nc1ccc2cc(C#N)c(=O)[nH]c2n1	> 100 µM (inactive)	> 100 µM (inactive)	> 100 µM (inactive)		> 100	> 100 µM (inactive)		> 100 µM (inactive)	64.3 µM (inactive)	> 100 µM (inactive)	> 100 µM (inactive)	> 100 µM (inactive)	> 100 µM (inactive)	> 100 µM (inactive)	> 100 µM (inactive)	> 100 µM (inactive)	> 100 µM (inactive)	> 100 µM (inactive)	> 100 µM (inactive)
NC1CC(=O)c2cc(Br)sc21 (centres undefined)	> 100 µM (inactive)	> 100 µM (inactive)	> 100 µM (inactive)	> 100 µM (inactive)	> 100		> 100 µM (inactive)	> 100 µM (inactive)	> 100 µM (inactive)		> 100 µM (inactive)	> 100 µM (inactive)	> 100 µM (inactive)	> 100 µM (inactive)	> 100 µM (inactive)	> 100 µM (inactive)	> 100 µM (inactive)	> 100 µM (inactive)	> 100 µM (inactive)
CCc1cccc(C)c1N1C(=O)C(=O)C(c2nc3ccccc3o2)C(=O)C1=O	> 100 µM (inactive)	> 100 µM (inactive)	> 100 µM (inactive)	> 100 µM (inactive)	> 100	> 100 µM (inactive)	> 100 µM (inactive)	> 100 µM (inactive)	> 100 µM (inactive)	> 100 µM (inactive)	> 100 µM (inactive)	> 100 µM (inactive)	> 100 µM (inactive)	> 100 µM (inactive)	> 100 µM (inactive)	> 100 µM (inactive)	> 100 µM (inactive)		
CC1(C)O[C@@H](CC/C=C/CO)[C@H](CC/C=C/CO)O1	> 100 µM (inactive)	> 100 µM (inactive)	> 100 µM (inactive)	> 100 µM (inactive)	> 100	> 100 µM (inactive)	> 100 µM (inactive)	> 100 µM (inactive)	> 100 µM (inactive)	> 100 µM (inactive)	> 100 µM (inactive)	> 100 µM (inactive)	> 100 µM (inactive)	> 100 µM (inactive)	> 100 µM (inactive)	> 100 µM (inactive)			
O=C(O)C(C(=O)C(=O)C(C(=O)O)c1ccc(Cl)cc1)c1ccc(Cl)cc1 (centres undefined)	4.2 µM (inactive)	4.76 µM (inactive)	2.9 µM (inactive)	2.34 µM (inactive)		3.11 µM (inactive)	3.72 µM (inactive)	3.23 µM (inactive)	3.75 µM (inactive)	2 µM (inactive)	3.46 µM (inactive)	4.25 µM (inactive)	2.15 µM (inactive)		5.89 µM (inactive)	2.75 µM (inactive)	4.72 µM (inactive)		
O=C(/C=C\c1cccc2ccccc12)c1ccc(F)cc1	18.1 µM (inactive)	29.7 µM (inactive)	26.8 µM (inactive)	13.6 µM (inactive)	15.1	11.9 µM (inactive)	17.3 µM (inactive)	15.3 µM (inactive)	15 µM (inactive)	20 µM (inactive)	17.8 µM (inactive)	16.6 µM (inactive)	21.5 µM (inactive)	17.8 µM (inactive)	23.5 µM (inactive)	17.6 µM (inactive)	16.7 µM (inactive)		
CCCCCCCCCCCCCC(=O)CC(=O)c1c(O)cccc1O	34.9 µM (inactive)	> 100 µM (inactive)	51.1 µM (inactive)	21.1 µM (inactive)	25.2	22.4 µM (inactive)	27.2 µM (inactive)	48 µM (inactive)	41.1 µM (inactive)	23 µM (inactive)	36.1 µM (inactive)	46.6 µM (inactive)	49.5 µM (inactive)	> 100 µM (inactive)	38.6 µM (inactive)	32.4 µM (inactive)	32.7 µM (inactive)		
CCOC(=O)c1cc(/C=C/C(C)=C/C(=O)OC)n(C)c1C	> 100 µM (inactive)	> 100 µM (inactive)	> 100 µM (inactive)	61.5 µM (inactive)	63.8	> 100 µM (inactive)	40 µM (inactive)	> 100 µM (inactive)	59.2 µM (inactive)	> 100 µM (inactive)	> 100 µM (inactive)	> 100 µM (inactive)	77.8 µM (inactive)	52.1 µM (inactive)	> 100 µM (inactive)	78.2 µM (inactive)	> 100 µM (inactive)		
O=C(O)CCN(CCCN(CCC(=O)O)CCC(=O)O)CCC(=O)O	> 100 µM (inactive)	> 100 µM (inactive)	> 100 µM (inactive)	> 100 µM (inactive)	> 100	> 100 µM (inactive)	> 100 µM (inactive)	> 100 µM (inactive)	> 100 µM (inactive)	> 100 µM (inactive)	> 100 µM (inactive)	> 100 µM (inactive)	> 100 µM (inactive)	> 100 µM (inactive)	> 100 µM (inactive)				
N#C/C(N)=N/c1ccccc1	> 100 µM (inactive)	> 100 µM (inactive)	> 100 µM (inactive)	> 100 µM (inactive)	> 100	> 100 µM (inactive)	> 100 µM (inactive)	> 100 µM (inactive)	> 100 µM (inactive)	> 100 µM (inactive)	> 100 µM (inactive)	> 100 µM (inactive)	> 100 µM (inactive)	> 100 µM (inactive)	> 100 µM (inactive)		> 100 µM (inactive)		
COc1cccc(C=O)c1C(=O)c1cc(O)ccc1O	> 100 µM (inactive)	> 44.9 µM (inactive)	> 100 µM (inactive)	3.91 µM (inactive)	19.5	17.7 µM (inactive)	> 49.2 µM (inactive)	> 44.2 µM (inactive)	> 100 µM (inactive)	> 81.7 µM (inactive)	> 100 µM (inactive)	> 100 µM (inactive)	> 100 µM (inactive)	91.8 µM (inactive)	> 100 µM (inactive)	20.1 µM (inactive)	18.5 µM (inactive)		
C=C1C(=O)O[C@@H]2C(=O)[C@@H](C)CCC/C(C)=C/CC[C@@]3(C)O[C@@H]3C[C@@H]12	21.3 µM (inactive)	> 100 µM (inactive)	> 100 µM (inactive)	11.8 µM (inactive)	20.2	13.2 µM (inactive)	14.3 µM (inactive)	15.7 µM (inactive)	29.8 µM (inactive)	> 100 µM (inactive)		> 100 µM (inactive)	25.2 µM (inactive)	29.9 µM (inactive)	> 100 µM (inactive)	56.8 µM (inactive)	92.7 µM (inactive)	51.3 µM (inactive)	87.9 µM (inactive)
